Measured values as given in article PMC10762035, “Molecular basis of human trace amine-associated receptor 1 activation” (Nature Communications, 2024).
“And” between values parts separate entries of the source, which are not always exact repeats. Equal values may be shown once. Where a name gives a salt, the structure may show the parent alone. Read-outs that look alike come from different tables or passages of the source.

Target: T1, hTA1 (Homo sapiens, UniProt Q96RJ0)
T1 construct: expressed in transfected cells; host or cells: HEK293T
T1 sequence (Q96RJ0 1-339): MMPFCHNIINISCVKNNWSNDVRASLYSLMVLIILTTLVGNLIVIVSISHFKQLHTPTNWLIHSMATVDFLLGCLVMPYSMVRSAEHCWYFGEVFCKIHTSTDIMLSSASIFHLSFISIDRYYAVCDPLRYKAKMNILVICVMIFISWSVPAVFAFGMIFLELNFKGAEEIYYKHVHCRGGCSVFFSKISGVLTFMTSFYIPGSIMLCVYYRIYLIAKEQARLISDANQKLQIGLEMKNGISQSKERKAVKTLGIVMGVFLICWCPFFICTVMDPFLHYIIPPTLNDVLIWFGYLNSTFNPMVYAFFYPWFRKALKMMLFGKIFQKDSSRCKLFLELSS
Assay: Screen of 89 aminergic compounds at 10 µM, cAMP accumulation in HEK293T cells;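 note: HEK293T cells co-transfected with hTA1 and GloSensor cAMP reporter, cAMP accumulation detected by luminescence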
Type: cell-based

[1] = quadruplicate values, screen at 10 µM

SMILES	Luminescence for Screening Data [1]	also measured
CN1C[C@H](C(=O)N[C@]2(C)O[C@@]3(O)[C@@H]4CCCN4C(=O)[C@H](Cc4ccccc4)N3C2=O)C[C@@H]2c3cccc4[nH]cc(c34)C[C@H]21 [Dihydroergotamine mesylate]	25.4 and 24.7 and 32.7 and 26.9	
Cl.N#Cc1ccc(N2CCN(C(=O)COc3ccc4[nH]cc(CCN)c4c3)CC2)cc1 [Donitriptan hydrochloride]	9.4 and 7.6 and 8.3 and 7.4	
N#Cc1c[nH]c2c(C(=O)N3CCN(CCc4ccc(F)cc4)CC3)cccc12 [EMD281014]	4.2 and 3.9 and 4.4	
Cc1[nH]c2ccc(Cl)cc2c1C1=CCNCC1 [EMD386088]	14.2 and 14.9 and 14.6 and 13.7	
CCN(CC)C(=O)/C(C#N)=C/c1cc(O)c(O)c([N+](=O)[O-])c1 [Entacapone]	5.5 and 5.2 and 6.2 and 5.6	
Oc1cc(O)c2c(c1)O[C@H](c1cc(O)c(O)c(O)c1)[C@H](O)C2 [Epigallocatechin]	5.2 and 5.7 and 5.9 and 6.3	
O=C1Nc2ccc(Cl)cc2[C@@](C#CC2CC2)(C(F)(F)F)O1 [Evafirenz]	3.7 and 4.1 and 4.4 and 4.6	
CNc1ccc2c(CCN)cc(=O)oc2c1 [FFN206]	12.7 and 12.5 and 12.8	
O=S1(=O)c2cccc3cccc(c23)N1CCCN1CCN(c2ccc(F)cc2)CC1 [Fananserin]	4.9 and 5 and 4.3 and 5.2	
CNCCC(Oc1ccc(C(F)(F)F)cc1)c1ccccc1 (stereo not shown) [Fluoxetine]	8.5 and 7.5 and 8.1 and 6.5	
Fc1ccc(C(OCCN2CCN(CCCc3ccccc3)CC2)c2ccc(F)cc2)cc1 [GBR12909]	4.8 and 5.2 and 6.6 and 6.2	
Cl.O=c1[nH]oc2c1CCNC2 [Gaboxadol HCl]	7 and 8.2 and 5.3 and 6.3	
O=C(CCCN1CCC(O)(c2ccc(Cl)cc2)CC1)c1ccc(F)cc1 [Haloperidol]	7.4 and 8.8 and 6.8 and 6.9	
O=C1c2ccccc2S(=O)(=O)N1CCCCN1CCN(c2ncccn2)CC1 [Ipsapirone]	6.8 and 5.5 and 5.4	
CNC1(c2ccccc2Cl)CCCCC1=O (stereo not shown) [Ketamine]	4.7 and 6.1 and 5.5 and 5.6	
O=C(c1ccc(F)cc1)C1CCN(CCn2c(=O)[nH]c3ccccc3c2=O)CC1 [Ketanserin]	6.8 and 5.5 and 5.4 and 3.9	
CS(=O)(=O)Nc1ccc(Cc2noc(-c3ccc4[nH]cc(CCN)c4c3)n2)cc1 [L694 247]	6.5 and 8.1 and 7.2	
CN1CCc2ccccc2Cc2[nH]c3ccccc3c2CC1 [LE300]		Luminescence for Screening Data: 5.7 and 3.6 and 5.5 and 5
O=C(CCCCCN1CCN(c2ccccc2-c2ccccc2)CC1)NC1CCCc2ccccc21 (stereo not shown) [LP12]	5.4 and 4.7 and 7.1 and 5	
COc1ccc(CC2NCCc3c2[nH]c2ccc(C)cc32)c(Cl)c1OC.Cl (stereo not shown) [LY266097 hydrochloride]	5.6 and 6.8 and 5.3 and 5.9	
CN1CCC(C(=O)c2cccc(NC(=O)c3c(F)cc(F)cc3F)n2)CC1 [Lasmitidan]	5.8 and 6.4 and 6.2 and 4.1	

SMILES	Luminescence for Screening Data [1]	also measured
CN1[C@@H](CC(=O)c2ccccc2)CCC[C@H]1C[C@H](O)c1ccccc1.CN1[C@@H](CC(=O)c2ccccc2)CCC[C@H]1C[C@H](O)c1ccccc1.O=S(=O)(O)O [Lobeline sulfate]	7.2 and 5 and 5.7 and 5.4	
CN1CCN(C2=Nc3ccccc3Oc3ccc(Cl)cc32)CC1.O=C(O)CCC(=O)O [Loxapine succinate salt]	5.2 and 3.9 and 5.6	
Fc1ccc2c(CCNCc3cccc(OCC(F)(F)C(F)F)c3)c[nH]c2c1 [LuAE58054]	7.5 and 10.3 and 7.4 and 7.7	
COc1cccc([C@H](O)C2CCN(CCc3ccc(F)cc3)CC2)c1OC [MDL 100907]	5.4 and 6.7 and 5.2 and 5.8	
CSc1ccc2c(c1)C(N1CCN(C)CC1)Cc1ccccc1S2 (stereo not shown) [Methiothepin]	2.6 and 3.3 and 3 and 3.4	
CN1C[C@H](C(=O)N[C@]2(C)O[C@@]3(O)[C@@H]4CCCN4C(=O)[C@H](Cc4ccccc4)N3C2=O)C=C2c3cccc4c3c(cn4C)C[C@H]21.O=C(O)/C=C\C(=O)O [Methylergotamine maleate]	42.5 and 31.9 and 34.9 and 38.8	
NC(=O)C[S+]([O-])C(c1ccccc1)c1ccccc1 (stereo not shown) [Modafanil]	6.8 and 5.8 and 5.7 and 8.1	
NC(=O)c1ccc(F)c2c1C[C@@H](N(C1CCC1)C1CCC1)CO2 [NAD 299]	6.3 and 5.6 and 4.8 and 5.9	
COc1ccccc1N1CCN(CCCCN2C(=O)c3ccccc3C2=O)CC1 [NAN190]	6.8 and 8.1 and 6.1 and 6.2	
O=[N+]([O-])c1ccc(CSc2ncnc3c2ncn3[C@@H]2O[C@H](CO)[C@@H](O)[C@H]2O)cc1 [NBMPR]	6.9 and 7.3 and 6.6	
O=C1CC[C@@]2(O)[C@H]3Cc4ccc(O)c5c4[C@@]2(CCN3CC2CC2)[C@H]1O5 [Naltrexone hydrochloride]	7.8 and 5.6 and 5.9 and 6.7	
CNc1cc(OC)c(C(=O)NC2CCN(Cc3ccccc3)C2C)cc1Cl (stereo not shown) [Nemonapride]	5.7 and 7.5 and 7.3 and 6.6	
C#CCN(C)Cc1ccccc1 [Pargyline hydrochloride]	8.3 and 10.1 and 8.8 and 8.5	
CN1CCC(=C2c3ccccc3Sc3ccccc32)CC1 [Pimethixine]	3.8 and 3.7	
COc1cc2nc(N3CCN(C(=O)c4ccco4)CC3)nc(N)c2cc1OC [Prazosin hydrochloride]	6.6 and 6.4 and 6.7 and 7.2	
O=c1c(O)c(-c2ccc(O)c(O)c2)oc2cc(O)cc(O)c12 [Quercetin]	31.9 and 24.7 and 28.4 and 23.7	
C=C[C@H]1C[N@@]2CC[C@H]1C[C@H]2[C@H](O)c1ccnc2ccc(OC)cc12 [Quinine sulfate]	7.1 and 8 and 6.1 and 7.2	
COc1cc(N)c(Cl)cc1C(=O)CCC1CCN(CCNS(C)(=O)=O)CC1.Cl [RS 67506 hydrochloride]	5.6 and 9 and 4.8 and 5.5	
CC(C)c1cc(-c2ccc(F)c3ccccc23)nc(N)n1 [RS 127445]	10.7 and 5.8 and 6.4 and 7	
CCN1CCC[C@H]1CNC(=O)c1c(O)c(Cl)cc(Cl)c1OC [Raclopride]	4.1 and 6.9 and 6.4 and 5	
COC(=O)[C@H]1[C@H]2C[C@H]3c4[nH]c5ccccc5c4CCN3C[C@H]2CC[C@@H]1O [Rauwolscine hydrochloride]	6.9 and 7.7 and 6.8	

SMILES	Luminescence for Screening Data [1]	also measured
COC(=O)[C@H]1[C@H]2C[C@@H]3c4[nH]c5cc(OC)ccc5c4CCN3C[C@H]2C[C@@H](OC(=O)c2cc(OC)c(OC)c(OC)c2)[C@@H]1OC [Reserpine]	10.3 and 8.2 and 7.3 and 7.1	
Cc1nc2n(c(=O)c1CCN1CCC(c3noc4cc(F)ccc34)CC1)CCCC2 [Risperidone]	6.7 and 6 and 6.8 and 7	
Cc1nc2sccn2c(=O)c1CCN1CCC(=C(c2ccc(F)cc2)c2ccc(F)cc2)CC1 [Ritanserin]	5.6 and 5.8 and 6.1 and 6.3	
CN1CCN(c2cccc3c(S(=O)(=O)c4ccccc4)c[nH]c23)CC1 [Ro4368554]	5.1 and 6 and 4.2 and 4.8	
CCCCN1CCC(COC(=O)c2cc(Cl)c(N)c3c2OCCO3)CC1 [SB204070]	5.4 and 6 and 6.4	
Cn1ccc2cc3c(cc21)CCN3C(=O)Nc1cccnc1 [SB206553]	5.8 and 7.8 and 6.3	
CC1CCN(CC[C@H]2CCCN2S(=O)(=O)c2cccc(O)c2)CC1 [SB269970]	7.2 and 7 and 6.5	
COc1ccc(S(=O)(=O)Nc2cc(Cl)cc(Cl)c2OC)cc1N1CCNCC1 [SB399885]	6.4 and 5.8 and 6.1 and 6.2	
O=S(=O)(c1ccccc1)c1cnc2c(N3CCNCC3)cccc2c1 [SB742457]	9 and 8.4 and 8.8 and 9.7	
CN1CCC(c2cn(C)c3ccc(OS(=O)(=O)c4c(F)cccc4F)cc23)CC1.O=C(O)C(=O)O [SGS 518 oxalate]	6.7 and 6.8 and 8	
NCCc1c[nH]c2ccc(O)cc12 [Serotonin Hydrochloride]	29.3	
O=C1NCCN1CCN1CCC(c2cn(-c3ccc(F)cc3)c3ccc(Cl)cc23)CC1 [Sertindole]	7.6 and 9 and 6.3	
O=C(CCCN1CCC2(CC1)C(=O)NCN2c1ccccc1)c1ccc(F)cc1 [Spiperone]	6.2 and 8.3 and 7.1 and 6.7	
CNS(=O)(=O)Cc1ccc2[nH]cc(CCN(C)C)c2c1 [Sumatriptan]	6.2 and 7.3	
COc1cc2c(cc1OC)C1CC(=O)C(CC(C)C)CN1CC2 (stereo not shown) [Tetrabenazine]	6.8 and 8.5 and 6.4 and 8.8	
C/C=C(/C)C(=O)O[C@H]1C(C)=C2[C@H]([C@@H]1OC(=O)CCCCCCC)[C@@](C)(OC(C)=O)C[C@H](OC(=O)CCC)[C@@]1(O)[C@H]2OC(=O)[C@@]1(C)O [Thapsigargin]	6.1 and 7.3 and 5.8 and 7.7	
COc1ccc(C(CN(C)C)C2(O)CCCCC2)cc1 (stereo not shown) [Venlafaxine]	6.7 and 7 and 6 and 6.5	
O=C1Cc2cc(CCN3CCN(c4nsc5ccccc45)CC3)c(Cl)cc2N1 [Ziprasidone]	5.8 and 4.8 and 5.4	
NCCc1c[nH]cn1 [histamine]	13.5 and 15.3 and 16.1 and 15.1	increase of signal over DMSO-treated controls (hTA1 activation) (10 µM of compound, HEK293T, threshold log2-fold change of 2): ≥ 4 fold
O=c1[nH]c2ccccc2n1C1CCN(CCCC(c2ccc(F)cc2)c2ccc(F)cc2)CC1 [pimozide]	4.4 and 4.3 and 5	
CN(C)CCOC1=Cc2ccccc2Sc2ccc(Cl)cc21 [zotepine]	5.4 and 6.9 and 6.1 and 5.8	
